Experiments:
[1] = excess molar enthalpy (molar enthalpy of mixing); xn = mol fraction of the nth substance listed; conditions: 298.15 K, 101 kPa, Liquid, isothermal titration calorimeter
[2] = 298.15 K; 101.33 kPa; Liquid; Vibrating tube method

CCCCCCC(C)=O [2-octanone] + CCCCCCO
[1]
Conditions | excess molar enthalpy [kcal/mol]
x2 = 0.021 | 0.0275
x2 = 0.041 | 0.0519
x2 = 0.06 | 0.0741
x2 = 0.079 | 0.0939
x2 = 0.097 | 0.112
x2 = 0.114 | 0.129
x2 = 0.13 | 0.143
x2 = 0.146 | 0.157
x2 = 0.164 | 0.171
x2 = 0.181 | 0.183
x2 = 0.197 | 0.195
x2 = 0.213 | 0.205
x2 = 0.228 | 0.214
x2 = 0.242 | 0.223
x2 = 0.259 | 0.232
x2 = 0.275 | 0.239
x2 = 0.29 | 0.246
x2 = 0.304 | 0.252
x2 = 0.314 | 0.258
x2 = 0.322 | 0.261
x2 = 0.331 | 0.264
x2 = 0.339 | 0.267
x2 = 0.349 | 0.27
x2 = 0.359 | 0.273
x2 = 0.367 | 0.275
x2 = 0.376 | 0.278
x2 = 0.385 | 0.28
x2 = 0.394 | 0.282
x2 = 0.405 | 0.284
x2 = 0.415 | 0.286
x2 = 0.426 | 0.287
x2 = 0.438 | 0.289
x2 = 0.448 | 0.29
x2 = 0.458 | 0.291
x2 = 0.469 | 0.291
x2 = 0.48 | 0.291
x2 = 0.492 | 0.292
x2 = 0.504 | 0.292
x2 = 0.517 | 0.291
x2 = 0.531 | 0.29
x2 = 0.542 | 0.289
x2 = 0.554 | 0.288
x2 = 0.566 | 0.286
x2 = 0.58 | 0.284
x2 = 0.593 | 0.282
x2 = 0.608 | 0.279
x2 = 0.623 | 0.275
x2 = 0.638 | 0.271
x2 = 0.652 | 0.266
x2 = 0.667 | 0.261
x2 = 0.682 | 0.255
x2 = 0.698 | 0.249
x2 = 0.714 | 0.241
x2 = 0.731 | 0.233
x2 = 0.746 | 0.225
x2 = 0.762 | 0.217
x2 = 0.778 | 0.207
x2 = 0.795 | 0.196
x2 = 0.812 | 0.185
x2 = 0.83 | 0.171
x2 = 0.85 | 0.157
x2 = 0.866 | 0.143
x2 = 0.879 | 0.129
x2 = 0.897 | 0.112
x2 = 0.916 | 0.0944
x2 = 0.936 | 0.0746
x2 = 0.956 | 0.0526
x2 = 0.978 | 0.0277

CCCCCCC(C)=O [2-octanone]
Conditions | mass density [kg/m3]
[2] | 814.32

CCCCCC(=O)O [hexanoic acid] + CCCCCCO
[1]
Conditions | excess molar enthalpy [kcal/mol]
x2 = 0.025 | 0.0232
x2 = 0.048 | 0.0423
x2 = 0.07 | 0.0586
x2 = 0.091 | 0.0722
x2 = 0.112 | 0.0841
x2 = 0.131 | 0.0942
x2 = 0.154 | 0.106
x2 = 0.176 | 0.115
x2 = 0.198 | 0.123
x2 = 0.218 | 0.129
x2 = 0.238 | 0.134
x2 = 0.256 | 0.139
x2 = 0.268 | 0.143
x2 = 0.277 | 0.145
x2 = 0.287 | 0.147
x2 = 0.298 | 0.149
x2 = 0.309 | 0.15
x2 = 0.321 | 0.152
x2 = 0.335 | 0.153
x2 = 0.349 | 0.155
x2 = 0.365 | 0.156
x2 = 0.377 | 0.156
x2 = 0.39 | 0.156
x2 = 0.404 | 0.156
x2 = 0.419 | 0.156
x2 = 0.435 | 0.156
x2 = 0.452 | 0.155
x2 = 0.47 | 0.153
x2 = 0.491 | 0.151
x2 = 0.506 | 0.149
x2 = 0.523 | 0.147
x2 = 0.54 | 0.144
x2 = 0.559 | 0.141
x2 = 0.579 | 0.137
x2 = 0.601 | 0.132
x2 = 0.624 | 0.127
x2 = 0.649 | 0.121
x2 = 0.669 | 0.115
x2 = 0.691 | 0.109
x2 = 0.714 | 0.103
x2 = 0.738 | 0.0956
x2 = 0.765 | 0.0872
x2 = 0.793 | 0.0784
x2 = 0.817 | 0.07
x2 = 0.843 | 0.0609
x2 = 0.87 | 0.0511
x2 = 0.899 | 0.0404
x2 = 0.931 | 0.0272
x2 = 0.964 | 0.0141

CCCCCC(=O)O [hexanoic acid]
Conditions | mass density [kg/m3]
[2] | 922.06

CCCCCCCCO [octan-1-ol]
Conditions | mass density [kg/m3]
[2] | 821.67

CCCCCC(=O)O [hexanoic acid] + C[S+](C)[O-]
[1]
Conditions | excess molar enthalpy [kcal/mol]
x2 = 0.042 | -0.0478
x2 = 0.081 | -0.0963
x2 = 0.117 | -0.144
x2 = 0.15 | -0.189
x2 = 0.181 | -0.233
x2 = 0.209 | -0.275
x2 = 0.241 | -0.322
x2 = 0.271 | -0.365
x2 = 0.298 | -0.405
x2 = 0.323 | -0.441
x2 = 0.346 | -0.473
x2 = 0.369 | -0.502
x2 = 0.38 | -0.514
x2 = 0.388 | -0.523
x2 = 0.397 | -0.533
x2 = 0.406 | -0.541
x2 = 0.415 | -0.55
x2 = 0.425 | -0.557
x2 = 0.436 | -0.565
x2 = 0.447 | -0.571
x2 = 0.457 | -0.575
x2 = 0.467 | -0.579
x2 = 0.477 | -0.582
x2 = 0.488 | -0.583
x2 = 0.498 | -0.582
x2 = 0.508 | -0.58
x2 = 0.519 | -0.577
x2 = 0.53 | -0.572
x2 = 0.541 | -0.564
x2 = 0.553 | -0.556
x2 = 0.563 | -0.547
x2 = 0.574 | -0.537
x2 = 0.585 | -0.525
x2 = 0.596 | -0.512
x2 = 0.608 | -0.497
x2 = 0.62 | -0.482
x2 = 0.631 | -0.468
x2 = 0.642 | -0.452
x2 = 0.653 | -0.436
x2 = 0.665 | -0.419
x2 = 0.677 | -0.401
x2 = 0.69 | -0.382
x2 = 0.701 | -0.366
x2 = 0.712 | -0.349
x2 = 0.724 | -0.332
x2 = 0.736 | -0.314
x2 = 0.748 | -0.296
x2 = 0.761 | -0.277
x2 = 0.772 | -0.261
x2 = 0.784 | -0.244
x2 = 0.796 | -0.227
x2 = 0.808 | -0.209
x2 = 0.821 | -0.192
x2 = 0.834 | -0.174
x2 = 0.846 | -0.159
x2 = 0.858 | -0.143
x2 = 0.87 | -0.128
x2 = 0.883 | -0.112
x2 = 0.896 | -0.097
x2 = 0.91 | -0.0844
x2 = 0.922 | -0.0691
x2 = 0.934 | -0.0564
x2 = 0.943 | -0.0442
x2 = 0.959 | -0.0323
x2 = 0.973 | -0.0208
x2 = 0.986 | -0.01
